In one test the target is Human β2 adrenoceptor (Homo sapiens, UniProt P07550). Particulars: read-out: B2 binding affinity.
A further test deals with Human M3 receptor (Homo sapiens, UniProt P20309). To be noted: read-out: M3 binding affinity.
Chain of Human M3 receptor (P20309 whole entry): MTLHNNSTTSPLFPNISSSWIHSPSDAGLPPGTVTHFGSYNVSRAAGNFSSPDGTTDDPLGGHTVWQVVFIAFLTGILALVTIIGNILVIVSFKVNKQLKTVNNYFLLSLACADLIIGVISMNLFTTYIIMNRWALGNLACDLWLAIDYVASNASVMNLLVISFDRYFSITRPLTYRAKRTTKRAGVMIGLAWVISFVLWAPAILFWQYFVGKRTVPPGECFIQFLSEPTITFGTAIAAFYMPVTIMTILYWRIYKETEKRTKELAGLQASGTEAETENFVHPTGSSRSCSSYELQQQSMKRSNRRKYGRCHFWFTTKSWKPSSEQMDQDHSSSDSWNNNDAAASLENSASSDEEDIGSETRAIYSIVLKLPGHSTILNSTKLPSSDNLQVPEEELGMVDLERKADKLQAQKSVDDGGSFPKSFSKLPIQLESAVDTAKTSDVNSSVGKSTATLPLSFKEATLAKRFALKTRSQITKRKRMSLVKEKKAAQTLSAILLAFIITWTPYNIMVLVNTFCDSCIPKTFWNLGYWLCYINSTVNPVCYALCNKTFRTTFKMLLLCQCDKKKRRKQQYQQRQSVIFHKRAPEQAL

Chain of Human β2 adrenoceptor (P07550 whole entry): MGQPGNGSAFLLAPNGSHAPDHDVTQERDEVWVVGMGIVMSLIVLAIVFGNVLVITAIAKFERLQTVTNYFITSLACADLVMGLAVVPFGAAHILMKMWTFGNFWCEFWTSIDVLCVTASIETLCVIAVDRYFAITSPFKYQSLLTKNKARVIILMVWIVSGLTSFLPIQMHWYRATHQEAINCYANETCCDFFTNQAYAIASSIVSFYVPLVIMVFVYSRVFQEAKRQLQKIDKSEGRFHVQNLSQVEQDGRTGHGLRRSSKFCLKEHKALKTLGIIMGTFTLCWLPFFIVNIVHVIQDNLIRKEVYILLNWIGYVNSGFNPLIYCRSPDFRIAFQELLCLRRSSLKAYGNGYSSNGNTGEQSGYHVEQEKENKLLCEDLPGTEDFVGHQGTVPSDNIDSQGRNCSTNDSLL

On to `O=C(COc1cccc([C@](O)(C(=O)OCC2CCN(Cc3ccccc3)CC2)c2ccccc2)c1)N1CCN(C(=O)c2ccc(CCNC[C@H](O)c3ccc(O)c4[nH]c(=O)ccc34)cc2)CC1` [Compound 86, (1-benzylpiperidin-4-yl)methyl (S)-2-hydroxy-2-(3-(2-(4-(4-(2-(((R)-2-hydroxy-2-(8-hydroxy-2-oxo-1,2-dihydroquinolin-5-yl)ethyl)amino)ethyl)benzoyl)piperazin-1-yl)-2-oxoethoxy)phenyl)-2-phenylacetate], for which the values for the IC50 on Human β2 adrenoceptor and on Human M3 receptor were less than 0.3 nM and 0.3 to 3 nM, respectively.
For `O=C(NCc1ccc(COc2ccc(C(O)(C(=O)OCC3CCN(Cc4ccccc4)CC3)c3ccccc3)cc2)cc1)c1ccc(CNC[C@H](O)c2ccc(O)c3[nH]c(=O)ccc23)cc1` (stereo partly drawn) [Compound 53, (1-benzylpiperidin-4-yl)methyl 2-hydroxy-2-(4-((4-((4-((((R)-2-hydroxy-2-(8-hydroxy-2-oxo-1,2-dihydroquinolin-5-yl)ethyl)amino)methyl)benzamido)methyl)-benzyl)oxy)phenyl)-2-phenylacetate diformate], in that order: more than 3 nM and more than 3 nM.
Turning to `O=C(N[C@@H]1CCN(C(=O)COc2cccc([C@](O)(C(=O)OCC3CCN(Cc4ccccc4)CC3)c3ccccc3)c2)C1)c1ccc(CNC[C@H](O)c2ccc(O)c3[nH]c(=O)ccc23)cc1` [Compound 76, (1-benzylpiperidin-4-yl)methyl (S)-2-hydroxy-2-(3-(2-((R)-3-(4-((((R)-2-hydroxy-2-(8-hydroxy-2-oxo-1,2-dihydroquinolin-5-yl)ethyl)amino)methyl)benzamido)pyrrolidin-1-yl)-2-oxoethoxy)phenyl)-2-phenylacetate], the IC50 at Human β2 adrenoceptor and on Human M3 receptor was 0.3 to 3 nM throughout.
`COc1c(CNC[C@H](O)c2ccc(O)c3[nH]c(=O)ccc23)ccc(C(=O)N[C@H]2C[C@H](NC(=O)COc3cccc([C@](O)(C(=O)OCC4CCN(Cc5ccccc5)CC4)c4ccccc4)c3)C2)c1F` [Compound 139, (1-benzylpiperidin-4-yl)methyl (S)-2-(3-(2-(((1R,3S)-3-(2-fluoro-4-((((R)-2-hydroxy-2-(8-hydroxy-2-oxo-1,2-dihydroquinolin-5-yl)ethyl)amino)methyl)-3-methoxybenzamido)cyclobutyl)amino)-2-oxoethoxy)phenyl)-2-hydroxy-2-phenylacetate]: the figures for the IC50 at Human β2 adrenoceptor and on Human M3 receptor were less than 0.3 nM and 0.3 to 3 nM, respectively.
With `O=C(COc1cccc([C@](O)(C(=O)OCC2CCN(Cc3ccccc3)CC2)c2ccccc2)c1)NCCCNC(=O)c1ccc(CCNC[C@H](O)c2ccc(O)c3[nH]c(=O)ccc23)cc1` [Compound 85, (1-benzylpiperidin-4-yl)methyl (S)-2-hydroxy-2-(3-(2-((3-(4-(2-(((R)-2-hydroxy-2-(8-hydroxy-2-oxo-1,2-dihydroquinolin-5-yl)ethyl)amino)ethyl)benzamido)propyl)amino)-2-oxoethoxy)phenyl)-2-phenylacetate], the results for the IC50 on Human β2 adrenoceptor and on Human M3 receptor were less than 0.3 nM and 0.3 to 3 nM, respectively.
For `COc1cc(CNC[C@H](O)c2ccc(O)c3[nH]c(=O)ccc23)ccc1C(=O)N1CCC2(CCN(C(=O)COc3cccc([C@](O)(C(=O)OCC4CCN(Cc5ccccc5)CC4)c4ccccc4)c3)CC2)CC1` [Compound 81, (1-benzylpiperidin-4-yl)methyl (S)-2-hydroxy-2-(3-(2-(9-(4-((((R)-2-hydroxy-2-(8-hydroxy-2-oxo-1,2-dihydroquinolin-5-yl)ethyl)amino)methyl)-2-methoxybenzoyl)-3,9-diazaspiro[5.5]undecan-3-yl)-2-oxoethoxy)phenyl)-2-phenylacetate], in that order: 0.3 to 3 nM and 0.3 to 3 nM.
Turning to `O=C(COc1cccc([C@](O)(C(=O)OCC2CCN(Cc3ccccc3)CC2)c2ccccc2)c1)NC1CCN(C(=O)c2ccc(CNC[C@H](O)c3ccc(O)c4[nH]c(=O)ccc34)cc2)CC1` [Compound 65, (1-benzylpiperidin-4-yl)methyl (S)-2-hydroxy-2-(3-(2-((1-(4-((((R)-2-hydroxy-2-(8-hydroxy-2-oxo-1,2-dihydroquinolin-5-yl)ethyl)amino)methyl)benzoyl)piperidin-4-yl)amino)-2-oxoethoxy)phenyl)-2-phenylacetate], the IC50 at Human β2 adrenoceptor is 0.3 to 3 nM; on Human M3 receptor, less than 0.3 nM.
Take `O=C(NCC(=O)N1CCC(COc2cccc([C@](O)(C(=O)OCC3CCN(Cc4ccccc4)CC3)c3ccccc3)c2)CC1)c1ccc(CCNC[C@H](O)c2ccc(O)c3[nH]c(=O)ccc23)cc1` [Compound 152, (1-benzylpiperidin-4-yl)methyl (S)-2-hydroxy-2-(3-((1-((4-(2-(((R)-2-hydroxy-2-(8-hydroxy-2-oxo-1,2-dihydroquinolin-5-yl)ethyl)amino)ethyl)benzoyl)glycyl)piperidin-4-yl)methoxy)phenyl)-2-phenylacetate]: the IC50 is 0.3 to 3 nM on Human β2 adrenoceptor and less than 0.3 nM at Human M3 receptor.
For `O=C(N[C@H]1C[C@H](NC(=O)c2ccc(COc3cccc([C@](O)(C(=O)OCC4CCN(Cc5ccccc5)CC4)c4ccccc4)c3)cc2)C1)c1ccc(CCNC[C@H](O)c2ccc(O)c3[nH]c(=O)ccc23)cc1` [Compound 114, (1-Benzylpiperidin-4-yl)methyl (S)-2-hydroxy-2-(3-((4-(((1R,3S)-3-(4-(2-(((R)-2-hydroxy-2-(8-hydroxy-2-oxo-1,2-dihydroquinolin-5-yl)ethyl)amino)-ethyl)benzamido)cyclobutyl)carbamoyl)benzyl)oxy)phenyl)-2-phenylacetate], in that order: 0.3 to 3 nM and 0.3 to 3 nM.
For `CCc1ccccc1C(O)(C(=O)OCC1CCN(Cc2ccccc2)CC1)c1cccc(OCCCCCNC[C@H](O)c2ccc(O)c3[nH]c(=O)ccc23)c1` (stereo partly drawn) [Compound 8, (1-benzylpiperidin-4-yl)methyl 2-(2-ethylphenyl)-2-hydroxy-2-(3-((5-(((R)-2-hydroxy-2-(8-hydroxy-2-oxo-1,2-dihydroquinolin-5-yl)ethyl)amino)pentyl)oxy)phenyl)acetate], in that order: 0.3 to 3 nM and more than 3 nM.
For `O=C(c1ccc(CNC[C@H](O)c2ccc(O)c3[nH]c(=O)ccc23)cc1)N1C[C@@H]2CCN(C(=O)COc3cccc([C@](O)(C(=O)OCC4CCN(Cc5ccccc5)CC4)c4ccccc4)c3)[C@@H]2C1` [Compound 77, (1-benzylpiperidin-4-yl)methyl (S)-2-hydroxy-2-(3-(2-((3aS,6aS)-5-(4-((((R)-2-hydroxy-2-(8-hydroxy-2-oxo-1,2-dihydroquinolin-5-yl)ethyl)amino)methyl)benzoyl)hexahydropyrrolo[3,4-b]pyrrol-1(2H)-yl)-2-oxoethoxy)phenyl)-2-phenylacetate], in that order: 0.3 to 3 nM and 0.3 to 3 nM.
Consider `O=C(COc1cccc([C@](O)(C(=O)OCC2CCN(Cc3ccccc3)CC2)c2ccccc2)c1)N1C[C@H]2CCN(C(=O)c3ccc(CCNC[C@H](O)c4ccc(O)c5[nH]c(=O)ccc45)cc3)[C@H]2C1` [Compound 111, (1-benzylpiperidin-4-yl)methyl (S)-2-hydroxy-2-(3-(2-((3aR,6aR)-1-(4-(2-(((R)-2-hydroxy-2-(8-hydroxy-2-oxo-1,2-dihydroquinolin-5-yl)ethyl)amino)ethyl)benzoyl)hexahydropyrrolo[3,4-b]pyrrol-5(1H)-yl)-2-oxoethoxy)phenyl)-2-phenylacetate], for which the IC50 at Human β2 adrenoceptor and at Human M3 receptor was 0.3 to 3 nM each time.
`O=C(N[C@@H]1CCN(C(=O)COc2cccc([C@](O)(C(=O)OCC3CCN(Cc4ccccc4)CC3)c3ccccc3)c2)C1)c1ccc(CCNC[C@H](O)c2ccc(O)c3[nH]c(=O)ccc23)cc1` [Compound 110, (1-benzylpiperidin-4-yl)methyl (S)-2-hydroxy-2-(3-(2-((R)-3-(4-(2-(((R)-2-hydroxy-2-(8-hydroxy-2-oxo-1,2-dihydroquinolin-5-yl)ethyl)amino)ethyl)benzamido)pyrrolidin-1-yl)-2-oxoethoxy)phenyl)-2-phenylacetate]: the IC50 at Human β2 adrenoceptor and at Human M3 receptor was 0.3 to 3 nM each time.
On to `O=C(COc1cccc([C@](O)(C(=O)OCC2CCN(Cc3ccccc3)CC2)c2ccccc2)c1)N[C@H]1CCCN(C(=O)c2ccc(CNC[C@H](O)c3ccc(O)c4[nH]c(=O)ccc34)cc2)C1` [Compound 69, (1-benzylpiperidin-4-yl)methyl (S)-2-hydroxy-2-(3-(2-(((S)-1-(4-((((R)-2-hydroxy-2-(8-hydroxy-2-oxo-1,2-dihydroquinolin-5-yl)ethyl)amino)methyl)benzoyl)piperidin-3-yl)amino)-2-oxoethoxy)phenyl)-2-phenylacetate], for which the IC50 at Human β2 adrenoceptor and at Human M3 receptor was 0.3 to 3 nM throughout.
Turning to `O=C(NCCNC(=O)c1ccc(COc2cccc([C@](O)(C(=O)OCC3CCN(Cc4ccccc4)CC3)c3ccccc3)c2)cc1)c1ccc(CNC[C@H](O)c2ccc(O)c3[nH]c(=O)ccc23)cc1` [Compound 125, (1-benzylpiperidin-4-yl)methyl (S)-2-hydroxy-2-(3-((4-((2-(4-((((R)-2-hydroxy-2-(8-hydroxy-2-oxo-1,2-dihydroquinolin-5-yl)ethyl)amino)methyl)benzamido)ethyl)carbamoyl)benzyl)oxy)phenyl)-2-phenylacetate], the IC50 on Human β2 adrenoceptor and at Human M3 receptor was 0.3 to 3 nM throughout.
Take `CCOc1cc(C(=O)N[C@H]2C[C@H](NC(=O)COc3cccc([C@](O)(C(=O)OCC4CCN(Cc5ccccc5)CC4)c4ccccc4)c3)C2)ccc1CNC[C@H](O)c1ccc(O)c2[nH]c(=O)ccc12` [Compound 140, (1-benzylpiperidin-4-yl)methyl (S)-2-(3-(2-(((1R,3S)-3-(3-ethoxy-4-((((R)-2-hydroxy-2-(8-hydroxy-2-oxo-1,2-dihydroquinolin-5-yl)ethyl)amino)methyl)benzamido)cyclobutyl)amino)-2-oxoethoxy)phenyl)-2-hydroxy-2-phenylacetate]: the IC50 at Human β2 adrenoceptor and on Human M3 receptor was 0.3 to 3 nM throughout.

(Values after patent US9579314B2 (priority 2015, dated 2017).)
